In patent US20250295646A1, “METHODS OF USE OF T-TYPE CALCIUM CHANNEL MODULATORS” (Praxis Precision Medicines, Inc., priority 2022, published 2025):

How the values were obtained:
[1] = Phase 1 single ascending dose (Part A) pharmacokinetics of 20 mg tablet formulation 3; settings: human, in vivo, oral, single 60 mg, geometric mean
Protocol: This was a 2-part, Phase 1 double blind, placebo controlled trial to assess the safety, tolerability, pharmacokinetics, and pharmacodynamics (including the KSS, the KDT, the SQSQ and 24-hour EEG recordings), of single, ascending (Part A: 20, 40, and 60 mg) and multiple, ascending (Part B: 20 and 40 mg for 8 days) doses of the 20 mg tablet (formulation 3) in healthy participants. […] Variability in Cmax and AUC increased with increasing dose following a single oral dose of the 20 mg tablet formulation (formulation 3) (FIG. 16).

[2] = Within-participant escalating dose trial Part B (20-120 mg titration): pharmacokinetics; settings: titrated dosing schedule
Protocol: Each participant completed 3 study periods: Screening, Treatment period (12 or 31 days), and Safety follow-up.
Participants were healthy males and females between the ages of 18 and 55 years old.
In Part B, a randomized controlled trial was conducted.

hCav3.1 = target: T1, hCav3.1 (Homo sapiens, UniProt O43497); assay: PatchXpress patch clamp, voltage dependent block (half-inactivated state); type: cell-based
T1 construct: expressed in transfected cells; host or cells: HEK-293

[3] = tested on: sigma band EEG power during NREM sleep; assay: EEG/PSG: sigma band EEG power during NREM sleep; type: in vivo, human; settings: for NREM Sigma Power Ratio from Baseline / NREM sigma power from baseline, LS Means: N = 10
Protocol: The effects of multiple doses of a wider dose range (Part A: 5, 10, 20 mg; Part B: 60, 80, 100, 120 mg) on sigma band EEG power during NREM sleep were also evaluated as part of the protocol described in Example 11, above. 24-hour EEG/PSG recordings were performed the day before dosing (baseline day) and after dosing on Days 4, 8, and 12 (for Part A) or Days 10, 17, 24, and 31 (for Part B). Part B also included placebo-treated participants for statistical comparisons.
The pharmacokinetic/pharmacodynamic (PKPD) effects of administration a compound of formula (II) on EEG were also evaluated. The recording of the NREM sigma absolute power was reported as a single summary value of a single night of sleep following each dose on pre-specified days (baseline and Days 4, 8 and 12 for Example 11, Part A and Days 10, 17, 24, and 31 for Part B, as set forth in Tables 22 and 23, above. Each NREM sigma absolute power value was paired with a model predicted average plasma concentration (Cave) that corresponded to the 24-hour EEG recording period on the respective study day. For example, if the period of EEG recording for an individual was from 6 am on Day 4 to 6 am on Day 5, then the corresponding Cave was calculated as the average of the individual's model-predicted concentrations (sampled every 30 minutes) from that same time period. The resulting PKPD data were analyzed in a mixed-effects modelling framework using NONlinear Mixed Effects Modeling (NONMEM) software. The change from baseline NREM sigma absolute power was specified as the outcome and the primary explanatory variable was the Cave of a compound of formula (II).
The population PK model was used to generate Cave for NREM sigma absolute power and concentrations for EO and EC gamma absolute power. For NREM sigma absolute power, the Cave was computed for the final day of each dose level over the EEG collection interval. For EO and EC gamma absolute power, concentrations at 4 hours post-dose and 23.75 hours post-dose were generated on the final day of each dose level. The final population PKPD models for NREM sigma absolute power and EO and EC gamma absolute power were then used to generate corresponding EEG responses.

T1 sequence (O43497 whole entry): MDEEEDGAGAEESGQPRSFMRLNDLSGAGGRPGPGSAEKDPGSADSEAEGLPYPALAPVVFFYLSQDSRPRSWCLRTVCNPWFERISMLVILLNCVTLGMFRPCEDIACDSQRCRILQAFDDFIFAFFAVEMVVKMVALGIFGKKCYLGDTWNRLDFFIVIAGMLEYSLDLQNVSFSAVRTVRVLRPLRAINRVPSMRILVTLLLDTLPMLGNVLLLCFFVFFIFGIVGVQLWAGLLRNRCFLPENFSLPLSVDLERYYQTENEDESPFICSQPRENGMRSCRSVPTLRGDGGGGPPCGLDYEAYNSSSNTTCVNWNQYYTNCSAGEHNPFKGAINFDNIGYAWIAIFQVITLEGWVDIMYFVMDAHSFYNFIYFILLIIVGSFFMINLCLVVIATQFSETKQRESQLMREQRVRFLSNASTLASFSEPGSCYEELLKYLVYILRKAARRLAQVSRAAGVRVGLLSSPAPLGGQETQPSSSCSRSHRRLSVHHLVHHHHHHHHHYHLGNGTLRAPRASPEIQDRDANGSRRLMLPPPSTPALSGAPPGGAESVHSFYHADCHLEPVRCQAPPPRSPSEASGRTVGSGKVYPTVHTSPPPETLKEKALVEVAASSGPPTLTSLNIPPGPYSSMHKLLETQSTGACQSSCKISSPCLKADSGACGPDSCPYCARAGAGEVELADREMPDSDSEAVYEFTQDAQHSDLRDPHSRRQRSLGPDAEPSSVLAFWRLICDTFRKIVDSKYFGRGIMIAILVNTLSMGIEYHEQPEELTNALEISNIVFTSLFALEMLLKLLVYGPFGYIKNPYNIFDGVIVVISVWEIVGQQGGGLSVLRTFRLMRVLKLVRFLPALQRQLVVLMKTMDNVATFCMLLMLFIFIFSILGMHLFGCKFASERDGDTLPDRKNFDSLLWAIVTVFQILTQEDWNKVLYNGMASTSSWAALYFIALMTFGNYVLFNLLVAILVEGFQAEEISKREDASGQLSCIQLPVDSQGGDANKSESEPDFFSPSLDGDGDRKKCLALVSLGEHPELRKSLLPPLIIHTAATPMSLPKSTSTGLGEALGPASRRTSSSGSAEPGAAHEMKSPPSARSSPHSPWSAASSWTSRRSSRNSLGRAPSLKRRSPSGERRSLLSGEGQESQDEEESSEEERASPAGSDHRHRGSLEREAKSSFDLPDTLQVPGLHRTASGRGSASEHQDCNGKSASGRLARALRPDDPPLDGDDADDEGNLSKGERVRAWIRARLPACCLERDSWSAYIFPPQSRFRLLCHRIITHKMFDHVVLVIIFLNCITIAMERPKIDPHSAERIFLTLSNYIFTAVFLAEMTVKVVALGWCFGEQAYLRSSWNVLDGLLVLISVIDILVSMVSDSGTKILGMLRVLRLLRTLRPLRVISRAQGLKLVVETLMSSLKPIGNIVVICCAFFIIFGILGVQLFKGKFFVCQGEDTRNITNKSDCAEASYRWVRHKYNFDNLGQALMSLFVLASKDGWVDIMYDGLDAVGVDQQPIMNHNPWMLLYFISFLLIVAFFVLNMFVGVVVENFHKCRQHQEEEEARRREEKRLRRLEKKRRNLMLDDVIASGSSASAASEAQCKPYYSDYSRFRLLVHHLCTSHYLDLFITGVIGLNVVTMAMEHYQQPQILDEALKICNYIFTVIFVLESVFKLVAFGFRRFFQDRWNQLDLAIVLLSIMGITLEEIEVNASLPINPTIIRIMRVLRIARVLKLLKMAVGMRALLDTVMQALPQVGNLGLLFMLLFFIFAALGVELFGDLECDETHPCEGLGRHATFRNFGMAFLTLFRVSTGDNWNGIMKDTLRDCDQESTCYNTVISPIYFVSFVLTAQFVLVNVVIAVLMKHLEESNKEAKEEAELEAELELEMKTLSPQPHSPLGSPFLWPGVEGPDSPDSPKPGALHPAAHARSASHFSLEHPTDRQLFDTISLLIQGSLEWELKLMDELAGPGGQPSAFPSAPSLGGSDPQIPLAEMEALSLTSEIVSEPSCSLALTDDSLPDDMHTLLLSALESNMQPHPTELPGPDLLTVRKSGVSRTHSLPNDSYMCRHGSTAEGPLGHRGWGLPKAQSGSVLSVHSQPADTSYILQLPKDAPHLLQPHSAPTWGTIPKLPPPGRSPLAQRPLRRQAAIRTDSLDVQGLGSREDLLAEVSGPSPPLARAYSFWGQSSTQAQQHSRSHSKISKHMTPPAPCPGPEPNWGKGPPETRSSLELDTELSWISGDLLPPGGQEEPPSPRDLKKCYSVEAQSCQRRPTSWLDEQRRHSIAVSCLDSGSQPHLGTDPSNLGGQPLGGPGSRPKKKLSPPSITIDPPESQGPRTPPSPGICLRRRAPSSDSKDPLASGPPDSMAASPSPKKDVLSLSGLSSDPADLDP

**Q.** Which Cmax ([1]; N = 6) does the source give for `CC(C)(C)NC(=O)CN1CCC(CNC(=O)c2cc(F)cc(Cl)c2)CC1` [compound of formula (I), N-((1-(2-(tert-butylamino)-2-oxoethyl)piperidin-4-yl)methyl)-3-chloro-5-fluorobenzamide] here?
**A.** Its Cmax is ~130 ng/mL.

**Q.** What about the AUC ([1]; read-out: AUC24) of the same molecule?
**A.** The AUC was ~1910 ng·h/mL.

**Q.** What about the “increase of Cmax and AUC24 above values of a lower dosage not tolerated without titration” value [2] of the same molecule?
**A.** Its value is 2-3 fold.

**Q.** What does the source list for `CC(C)(C)NC(=O)CN1CCC(CNC(=O)c2cc(F)cc(Cl)c2)CC1.Cl` [compound of formula (II), N-((1-(2-(tert-butylamino)-2-oxoethyl)piperidin-4-yl)methyl)-3-chloro-5-fluorobenzamide hydrochloride]?
**A.** tonic block/voltage dependent block (TB/VDB) ratio (hCav3.1): 3.8; sigma band EEG power during NREM sleep, change from baseline ([3]; 5-120 mg, plateaued after Day 17 (80 mg)): dose-dependent decrease; NREM sigma power, Formula (II) v. Placebo Difference ([3]; Day 10): −0.597; NREM sigma power, Formula (II) v. Placebo Ratio ([3]; Day 10): 0.550; NREM Sigma Power Ratio from Baseline ([3]; Day 10 (60 mg)): 0.581; NREM sigma power from baseline, LS Means ([3]; Day 10 (60 mg)): −0.542; NREM sigma power, Formula (II) v. Placebo Difference ([3]; Day 17): −0.697; NREM sigma power, Formula (II) v. Placebo Ratio ([3]; Day 17): 0.498; NREM Sigma Power Ratio from Baseline ([3]; Day 17 (80 mg)): 0.646; NREM sigma power from baseline, LS Means ([3]; Day 17 (80 mg)): −0.437; NREM sigma power, Formula (II) v. Placebo Difference ([3]; Day 24): −0.729; NREM sigma power, Formula (II) v. Placebo Ratio ([3]; Day 24): 0.482; NREM Sigma Power Ratio from Baseline ([3]; Day 24 (100 mg)): 0.498; NREM sigma power from baseline, LS Means ([3]; Day 24 (100 mg)): −0.698; NREM sigma power, Formula (II) v. Placebo Difference ([3]; Day 31): −0.679; NREM sigma power, Formula (II) v. Placebo Ratio ([3]; Day 31): 0.507; NREM Sigma Power Ratio from Baseline ([3]; Day 31 (120 mg)): 0.574; NREM sigma power from baseline, LS Means ([3]; Day 31 (120 mg)): −0.556
